# Source: patent publication US11167006B2 (Shanghai Tianci Life Science Development Co., Ltd., priority 2016, dated 2021)
# Square brackets hold non-standard residues; d marks the D form. Ends that are not written are not given here.
# How the values were obtained:
# [1] = tested on: gastrointestinal movement of male mice of Kunming strain; test: Gastrointestinal movement in vivo (activated carbon suspension); parameters: species or system mouse; details: 10 mg/kg (compound 9 subcutaneous; morphine positive control)
# Experimental: Male mice of Kunming strain, weighing 26±2 g. The commonly used toner detection method was used in the detection of astrointestinal movement in vivo. The specific experimental procedure was: before the gastrointestinal movement experiment, the mice were fasted for 16 hours (free drinking during fasting), then the drug was injected through spinal cord or subcutaneously, and after 15 minutes, the activated carbon suspension prepared in advance (a physiological saline suspension containing 5% of activated carbon and 10% gum arabic) was orally perfused into the stomach in a volume of 0.1 ml per 10 g of body weight. After 30 minutes from the perfusion of activated carbon suspension, the animals were sacrificed by cervical dislocation, and then the small intestine of the animal from the pylorus to the cecum was carefully taken out. The total lengths of the small intestine from the pylorus to the cecum and the furthest distance from which the activated carbon suspension moves were measured.
# Gastrointestinal movement test results were evaluated by a percentage of gastrointestinal movement, and the percentage of gastrointestinal movement per mouse was calculated by dividing the moving distance of the activated carbon suspension by the total length of the small intestine. The relevant data were expressed as mean of the percentage of gastrointestinal movement±standard error (Means±S.E.M.), the data for differences between groups treated with different drug concentrations were analyzed by one-way ANOVA (Dunnett test in one-way ANOVA) for statistics and analysis, ***P<0.001 represented that there was a significant difference between the percentage of gastrointestinal movement of the drug-treated group and that of the saline group.
# [2] = tested on: CCI-induced neuralgia in mouse; test: Analgesic tolerance and cross-tolerance in CCI-induced neuralgia; format: in vivo; details: subcutaneous, seven consecutive days
# Experimental: CCI-induced neuralgia in mouse was detected using a PL-200 thermal tingling instrument and an electronic Von Frey tenderness instrument. The thermal pain threshold of one group of normal mice and the mechanical pain threshold of another group of normal mice were first determined. The mice were then anesthetized with sodium pentobarbital 80 mg/kg mouse body weight) and the mice were fixed in the prone position. The right sciatic nerve was exposed and 3 mild ligation rings were made around the sciatic nerve using a 4-0 chromic catgut, 1 mm intervals. The ligation intensity is preferably a slight tremor in the right hind leg. On the 10th day after surgery, the thermal pain sensitivity value and mechanical pain sensitivity value of the right hind paw of the two groups of mice were determined. Compound 9 or morphine was then administered subcutaneously for seven consecutive days, and compound 9 was given to mice in the morphine group on day 8. The thermal tingling and mechanical pain thresholds at different time points after administration were recorded.
# The experimental data were expressed as mean±standard error (Means±S.E.M.). Data for differences between groups treated with the same drug were analyzed by one-way ANOVA (Tukey HSD test of one-way ANOVA) for statistics and analysis, *P<0.05. **P<0.01, ***P<0.001 indicates a significant difference between the pain threshold of the drug-treated group and the pain threshold after the First day of administration.
# [3] = tested on: CFA-induced inflammatory pain in mouse; test: Analgesic tolerance and cross-tolerance in CFA-induced inflammatory pain; format: in vivo; details: mechanical pain, lateral ventricle 6 days or subcutaneous 7 days
# Experimental: CFA-induced inflammatory pain in mouse was detected by an electronic Von Frey tenderness instrument, and the basal pain threshold of normal mice was Firstly determined. Then […] of CFA solution was injected subcutaneously into the mouse paw. After 4 days, the mechanical pain sensitivity value of the injected paw of the mouse was measured. And then compound 9 or morphine was injected for 6 consecutive days (lateral ventricle) or 7 consecutive days (subcutaneously), and the mice in morphine group were given compound 9 on day 7 (lateral ventricle) or day 8 (subcutaneous). The mechanical pain thresholds at different time points after administration were recorded.
# The experimental data were expressed as mean± standard error (Means±S.E.M.). Data for differences between groups treated with the same drug were analyzed by one-way ANOVA (Tukey HSD test of one-way ANOVA) for statistics and analysis, *P<0.05. **P<0.005, ***P<0.001 indicates a significant difference between the mechanical pain threshold of the drug-treated group and the pain threshold after the first day of administration.
# mice [4] = test: Conditional position preference test (CPP); format: in vivo, mouse; details: subcutaneous 10 mg/kg
# Experimental: The conditional position preference experimental device is a closed device (45×20×20 cm) assembled from transparent plexiglass plates. Two 20×20×20 cm conditional preference boxes are located at both ends of the device, with a small compartment 5×20×20 cm having a passage (5×5×5 cm) connected in the middle. On the first day of the experiment, the passage was kept open, the mice was placed into the device for 15 min, and the mice that had been explored for more than 9 min in any of the preference boxes were excluded. […] On day 5, the passage was kept opened again to ensure that the mice were free to enter into the two preference boxes, and the time that the mice stayed in the drug matching preference box within 15 minutes of the total time was recorded.
# The experimental relevant data were expressed as mean±standard error (Means±S.E.M.), and the conditional position preference score represents the time spent on the drug matching preference box on day 5 of each mouse minus the time on the first day in this preference box. Differences between groups treated with different drugs in CPP trials were analyzed by one-way ANOVA (Tukey HSD test in one-way ANOVA) for data statistics and analysis.
# [5] = tested on: movement activity of mice; test: Movement activity, open field experiment; format: in vivo, mouse; details: subcutaneous 10 mg/kg
# Experimental: The movement activity of the mice was tested by open field experiments. The experimental device is consisted of a 50×50×50 cm topless black plexiglass box and a movement monitoring system. The experiment was carried out in a soundproof environment with an indoor temperature being controlled at 22±1° C. After the experiment was started, the mice were first recorded for free movement within 30 minutes, and then compound 9 or morphine was administered subcutaneously, the movement of the mice was detected for another 150 minutes. Before the experiment for each mouse was started, the whole box was wiped with alcohol as a whole to exclude the residual odor of the previous mouse from affecting the accuracy of the data.
# The experimental data were expressed as mean±standard error (Means±S.E.M.), and the data for differences between groups treated with different drugs were analyzed by one-way ANOVA (Bonferroni test in one-way ANOVA) for statistics and analysis, ***P<0.001 represents that there was a significant difference between the movement activity of the drug-treated group and that of the saline group.
# [6] = tested on: male mice of Kunming strain; test: Analgesic tolerance test (photothermal tail flick); format: in vivo, mouse
# Experimental: The mice were injected with the drug in the lateral ventricle of the mice for six consecutive days or in the subcutaneous of the mice for eight consecutive days, and their analgesic tolerance were detected by photothermal tail flick method, and the pharmacological activity of the compounds of the present invention in analgesic tolerance was further explored.
# In male mice of Kunming strain, the drug was injected continuously in the lateral ventricle for six days, once a day, and the effect of continuous injection of drugs on the pain sensation was detected by a photothermal tail flick instrument. The ambient temperature is controlled at 22±1° C., and the experimental animals are free to eat and drink. The test drug was injected into the lateral ventricle of the mouse for 6 consecutive days, 4 μl per injection. The basic tail flick incubation period (3-5 seconds) was measured before the first day of drug injection, and those mice that were too sensitive or dull were discarded. The tail flick incubation period of 5, 10, 15, 20, 30 min after administration on the first and sixth days was recorded in the experiment. To prevent scald on the tail of the mouse, the maximum tail flick incubation period was set as 10 seconds,
# In addition, we further studied the tolerance of subcutaneous administration of compound 9 and morphine in the photothermal tail flick test. The ambient temperature is controlled at 22±1° C., and the experimental animals are free to eat and drink. First, the basic tail flick incubation period (3-5 seconds) of the mice was measured before administration, and then compound 9 or morphine was administered subcutaneously for eight consecutive days. The tail flick incubation period of 10, 15 and 20 minutes after daily administration were recorded. To prevent scald on the tail of the mouse, the maximum tail flick incubation period was set as 10 seconds.
# The experimental data is expressed by MPE (maximum possible effect), MPE (%)=100×[(pain threshold after administration−basal pain threshold)/(10 seconds−basal pain threshold)]. The analgesic tolerance of the drug was compared using the MPE value at the time of maximum analgesic effect of the drug. MPE data was expressed as mean±standard error (Means±S.E.M.). The difference in the analgesic effect of continuous administration in the lateral ventricle of the mice for six days was statistically analyzed by the paired T test, and the difference in the analgesic effect of subcutaneous continuous administration for eight days was analyzed by One-way analysis of variance (one-way ANOVA's Tukey HSD test) for statistics, and ***P<0.001 indicates a significant difference from the analgesic effect of the drug injected on the first day.
# mice [7] = test: Naloxone withdrawal test; format: in vivo, mouse; details: s.c. at 8 hours intervals 20, 40, 60, 80, 100, 100, 100 mg/kg; naloxone 1 mg/kg; 30 minutes
# [8] = tested on: formalin-induced pain mice; details: lateral ventricle; Br J Pharmacol 2016; cited from earlier work
# [9] = tested on: acute pain caused by photothermal therapy in male mice of Kunming strain; details: mouse tail flick, lateral ventricle; from ZL201210098832.2; cited from earlier work
# [10] = lateral ventricle injection, once a day, morphine 4 nmol
Compound,percentage of gastrointestinal movement [1] [%],"analgesic tolerance on continuous injection, mechanical pain sensitivity [2]","analgesic tolerance on continuous injection, thermal sensitivity pain [2]",analgesic tolerance on continuous injection [3],conditional positional preference (mice [4]),total distance of movement [5] [m],"analgesic tolerance ([6]; eight consecutive days subcutaneous, 10 mg/kg)","analgesic effect (MPE) after six days of continuous injection [6, 10] [%]","analgesic effect (MPE) on the first day [6, 10] [%]","analgesic tolerance ([6]; six consecutive days lateral ventricle injection, compounds at 3 times ED50, morphine 4 nmol)",average number of jumps after naloxone withdrawal (mice [7]),"analgesic ED50 value of BN-9, formalin first phase pain [8] [nmol]","analgesic ED50 value of BN-9, formalin second phase pain [8] [nmol]",analgesic ED50 value of BN-9 [9] [nmol]
"CN1CC[C@]23c4c5ccc(O)c4O[C@H]2[C@@H](O)C=C[C@H]3[C@H]1C5 [morphine, reference compound]",16.92,from the fourth day,from the third day,significantly reduced from the fourth day,produced significant conditional positional preference,439.73,significantly reduced from day 4,36.15,86.97,can significantly cause analgesia tolerance,47,,,
Tyr-D-Ala-Gly-Phe-Gln-Pro-Gln-Arg-Phe-NH2 (Y[dA]GFQPQRF-NH2) [BN-9],,,,,,,,,,,,0.12,1.14,0.39
